{"source": "patent US8440671B2", "about": "“Compositions comprising a phoshodiesterase-5 inhibitor and their use in methods of treatment” (priority 2007, dated 2013)", "key": {"[1]": {"system": "subject with Alzheimer's Disease and dementia", "conditions": "for clinical status changes: cholinesterase inhibitor alone", "from_the_text": "A fifth subject was diagnosed with Alzheimer's Disease and dementia and administered a combination of PI-5, SSRI and CI."}, "[2]": {"system": "subject with atypical Parkinson's Disease, severe seborrheic dermatitis and scarring facial acne rosacea", "type": "in vivo", "from_the_text": "A third subject was diagnosed with atypical Parkinson's Disease with an initial presentation fifteen years earlier with cogwheel type diffuse tremor of low amplitude, diffuse muscular rigidity, mild bradykinesia, gait abnormalities.\nPatient is a non-smoker and social drinker with minimal alcohol consumption and no history of drug abuse. Chronic problems of borderline hypertension (treated with diet and HYTRIN® (terazoin)), benign prostatic hypertrophy (treated with HYTRIN® (terazoin) and voding training), GERD treated intermittently as needed with PRILOSEC® (omeprazole) plus PEPCID® (famotidine) for short periods, DJD of cervical and lumbar spine treated intermittently with physical therapy, TYLENOL® (acetaminophen), occasional VICODIN® (acetaminophen/hydrocodone) as needed."}, "[3]": {"system": "subject with Parkinson's Disease", "assay": "Example 4: case report, subject with Parkinson's Disease given PI-5, SSRI and DI", "from_the_text": "A fourth subject was diagnosed with Parkinson's Disease and administered a combination of PI-5, SSRI and DI."}, "[4]": {"system": "subject with rapidly progressive multi-system neurodegenerative disease, facial acne, vitiligo, gingival infections", "type": "in vivo", "conditions": "for clinical response to neurological disease, skin and mucous membrane disorders: each drug given individually; for substitution within the oral combination: Viagra 50 mg TID for oral Cialis, Paxil 20 mg TID for Luvox", "from_the_text": "A second subject was diagnosed with nonspecific but rapidly progressive multi-system neurodegenerative disease. […] Initial presentation was with abrupt onset dementia with rapid progression over 3-4 months. Severe, generalized myoclonus of high amplitude with ataxia, dyspahagia, central and peripheral respiratory distress (requiring CPAP), dizziness, and hypokinetic rigidity followed some one month later and have continued to progress as well as dementia.\nMild intermittent gingival infections requiring minimal surgical intervention with retraction from tooth line for over ten years.\nPatient was a non-smoker with no alcohol or other drug consumption. Patient suffered from coexisting prior problem of chronic atrial fibrillation, currently rate controlled with exercise alone and anticoagulation intermittently with Coumadin.\nThe twenty four hour doses, put into 7.5 cc of water solution, was also applied topically to scar noted previously. […] Patient also takes Folic acid—1 mg per day, and Vitamin B6."}}, "data": [{"compound": "COc1cc2c(cc1OC)C(=O)C(CC1CCN(Cc3ccccc3)CC1)C2", "note": "(centres unmarked) [ARICEPT® (donepezil), donepezil]", "values": [{"measurement": "clinical status changes", "setting": "[1]", "result": "without significant clinical status changes"}, {"measurement": "substitution for COGNEX within the combination", "setting": "[1]; two week period, without noticeable changes", "result": "successfully substituted"}]}, {"compound": "NC12CC3CC(CC(C3)C1)C2", "note": "[Amantadine, amantadine]", "values": [{"measurement": "change in seborrheic dermatitis or acne rosacea", "setting": "[2]; chronic low-dose treatment", "result": "No change"}, {"measurement": "improvement of all symptoms", "setting": "[2]; chronic low-dose treatment", "result": "little or no improvement"}]}, {"compound": "CN1CCc2cccc3c2[C@H]1Cc1ccc(O)c(O)c1-3", "note": "[Apomorphine, apomorphine]", "values": [{"measurement": "paradoxical response to IV Apomorphine", "setting": "[2]; IV, part of work-up", "result": "decreased blood pressure and worsening of rigidity and tremor"}]}, {"compound": "CC(C)C[C@H]1C(=O)N2CCC[C@H]2[C@]2(O)O[C@](NC(=O)[C@@H]3C=C4c5cccc6[nH]c(Br)c(c56)C[C@H]4N(C)C3)(C(C)C)C(=O)N12", "note": "[Bromocriptine, bromocriptine]", "values": [{"measurement": "change on short periods of treatment", "setting": "[3]; short periods later in disease", "result": "without significant change"}]}, {"compound": "Nc1c2c(nc3ccccc13)CCCC2", "note": "[COGNEX® (tacrine), tacrine]", "values": [{"measurement": "clinical response to neurological disease, skin and mucous membrane disorders", "setting": "[4]", "result": "without any clinical response"}, {"measurement": "effect on all symptoms when added to the regimen", "setting": "[3]; added to Luvox, Cialis, Sinemet regimen", "result": "mild improvements"}, {"measurement": "tolerability when added to the regimen", "setting": "[3]; human, in vivo", "result": "discontinued secondary to gastrointestinal upset"}, {"measurement": "clinical status changes", "setting": "[1]", "result": "without significant clinical status changes"}]}, {"compound": "COCCCC/C(=N\\OCCN)c1ccc(C(F)(F)F)cc1", "note": "[LUVOX® (fluvoxamine), fluvoxamine]", "values": [{"measurement": "clinical response to neurological disease, skin and mucous membrane disorders", "setting": "[4]", "result": "without any clinical response"}]}, {"compound": "Fc1ccc([C@@H]2CCNC[C@H]2COc2ccc3c(c2)OCO3)cc1", "note": "[Paxil, paroxetine]", "values": [{"measurement": "substitution within the oral combination", "setting": "[4]", "result": "equivalently substituted"}]}, {"compound": "CCCc1nn(C)c2c(=O)[nH]c(-c3cc(S(=O)(=O)N4CCN(C)CC4)ccc3OCC)nc12", "note": "[VIAGRA® (sildenafil), sildenafil]", "values": [{"measurement": "substitution within the oral combination", "setting": "[4]", "result": "equivalently substituted"}, {"measurement": "clinical response to neurological disease, skin and mucous membrane disorders", "setting": "[4]", "result": "without any clinical response"}]}]}
